Source: patent US20210395262A1, “INHIBITORS OF HUMAN IMMUNODEFICIENCY VIRUS REPLICATION” (ViiV HEALTHCARE UK (NO.5) LIMITED, priority 2018, published 2021)
Where two headings read alike, the source gives them in different places.

Columns and labels:
recombinant NL4-3 virus = assay: HIV cell culture assay (antiviral activity, luciferase readout in MT-2 cells); format: cell-based; settings: Human immunodeficiency virus 1, NL43, MT2
In short: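 MT-2 cells infected for 4-5 days with NL4-3 reference virus carrying Renilla luciferase in place of part of nef, in presence of serial compound dilutions. Luciferase activity read with live-cell substrate. EC50 derived from median effect equation, slope parameter m.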

[1] = Compound cytotoxicity, XTT-based colorimetric assay; format: cell-based; settings: human
In short: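 Run under the antiviral-assay protocol but without virus. Viability was read on day 4 and CC50 values were derived from the readout.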

[2] = uninfected MT2 cells, day 4, XTT, read-out: CC50

SMILES | EC50 (recombinant NL4-3 virus) | CC50 at 4 days [1, 2] | CC50 at 4 days [1]
O=C(Cn1nc(C(F)F)cc1C1CC1)N[C@@H](Cc1cc(F)cc(F)c1)c1nc2cc(N3CCCCC3)ccc2c(=O)n1-c1ccc(Cl)c2c(NS(=O)(=O)C3CC3)nn(CC(F)F)c12 (atropisomer, axis not shown; (P)) [Example 39, (S)—N-(1-((3P)-3-(4-chloro-3-(cyclopropanesulfonamido)-1-(2,2-difluoroethyl)-1H-indazol-7-yl)-4-oxo-7-(piperidin-1-yl)-3,4-dihydroquinazolin-2-yl)-2-(3,5-difluorophenyl)ethyl)-2-(5-cyclopropyl-3-(difluoromethyl)-1H-pyrazol-1-yl)acetamide] | 3.72 nM | > 1000 nM | 
O=C(Cn1nc(C(F)F)c2c1C(F)(F)[C@@H]1C[C@H]21)N[C@@H](Cc1cc(F)cc(F)c1)c1nc2cc(N3CCOCC3)ccc2c(=O)n1-c1ccc(Cl)c2c(NS(=O)(=O)C3CC3)nn(CC(F)F)c12 (atropisomer, axis not shown; (P)) [Example 9, N—((S)-1-((3P)-3-(4-chloro-3-(cyclopropanesulfonamido)-1-(2,2-difluoroethyl)-1H-indazol-7-yl)-7-morpholino-4-oxo-3,4-dihydroquinazolin-2-yl)-2-(3,5-difluorophenyl)ethyl)-2-((3bS,4aR)-3-(difluoromethyl)-5,5-difluoro-3b,4,4a,5-tetrahydro-1H-cyclopropa[3,4]cyclopenta[1,2-c]pyrazol-1-yl)acetamide] | 0.086 nM | > 500 nM | 
Cn1nc(NS(C)(=O)=O)c2c(Cl)ccc(-n3c([C@H](Cc4cc(F)cc(F)c4)NC(=O)Cn4nc(C(F)F)c5c4C(F)(F)[C@@H]4C[C@H]54)nc4cc(NCC(F)(F)F)ccc4c3=O)c21 (atropisomer, axis not shown; (P)) [Example 42, N—((S)-1-((3P)-3-(4-chloro-1-methyl-3-(methylsulfonamido)-1H-indazol-7-yl)-4-oxo-7-((2,2,2-trifluoroethyl)amino)-3,4-dihydroquinazolin-2-yl)-2-(3,5-difluorophenyl)ethyl)-2-((3bS,4aR)-3-(difluoromethyl)-5,5-difluoro-3b,4,4a,5-tetrahydro-1H-cyclopropa[3,4]cyclopenta[1,2-c]pyrazol-1-yl)acetamide] | 0.11 nM | > 1000 nM | 
C[C@@H]1CN(c2ccc3c(=O)n(-c4ccc(Cl)c5c(NS(C)(=O)=O)nn(CC(F)F)c45)c([C@H](Cc4cc(F)cc(F)c4)NC(=O)Cc4cn(C5CC5)c5ccccc45)nc3c2)C[C@H](C)O1 [Example 52, N—((S)-1-((3P)-3-(4-chloro-1-(2,2-difluoroethyl)-3-(methylsulfonamido)-1H-indazol-7-yl)-7-((2S,6R)-2,6-dimethylmorpholino)-4-oxo-3,4-dihydroquinazolin-2-yl)-2-(3,5-difluorophenyl)ethyl)-2-(1-cyclopropyl-1H-indol-3-yl)acetamide] | 1.1 nM | > 500 nM | 
O=C(Cn1nc(C(F)F)cc1C1CC1)N[C@@H](Cc1cc(F)cc(F)c1)c1nc2cc(N3CCOCC3)ccc2c(=O)n1-c1ccc(Cl)c2c(NS(=O)(=O)C3CC3)nn(CC(F)F)c12 (atropisomer, axis not shown; (P)) [Example 40, (S)—N-(1-((3P)-3-(4-chloro-3-(cyclopropanesulfonamido)-1-(2,2-difluoroethyl)-1H-indazol-7-yl)-7-morpholino-4-oxo-3,4-dihydroquinazolin-2-yl)-2-(3,5-difluorophenyl)ethyl)-2-(5-cyclopropyl-3-(difluoromethyl)-1H-pyrazol-1-yl)acetamide] | 0.361 nM | > 1000 nM | 
C[C@@H]1CN(c2ccc3c(=O)n(-c4ccc(Cl)c5c(NS(C)(=O)=O)nn(CC(F)F)c45)c([C@H](Cc4cc(F)cc(F)c4)NC(=O)Cn4ccc(C5CC5)n4)nc3c2)C[C@H](C)O1 (atropisomer, axis not shown; (P)) [Example 48, N—((S)-1-((3P)-3-(4-chloro-1-(2,2-difluoroethyl)-3-(methylsulfonamido)-1H-indazol-7-yl)-7-((2S,6R)-2,6-dimethylmorpholino)-4-oxo-3,4-dihydroquinazolin-2-yl)-2-(3,5-difluorophenyl)ethyl)-2-(3-cyclopropyl-1H-pyrazol-1-yl)acetamide] | 0.44 nM | > 500 nM | 
Cn1nc(NS(C)(=O)=O)c2c(Cl)ccc(-n3c([C@H](Cc4cc(F)cc(F)c4)NC(=O)Cn4nc(C(F)F)c5c4C(F)(F)[C@@H]4C[C@H]54)nc4cc(N5CCC(S(C)(=O)=O)CC5)ccc4c3=O)c21 (atropisomer, axis not shown; (P)) [Example 30, N—((S)-1-((3P)-3-(4-chloro-1-methyl-3-(methylsulfonamido)-1H-indazol-7-yl)-7-(4-(methylsulfonyl)piperidin-1-yl)-4-oxo-3,4-dihydroquinazolin-2-yl)-2-(3,5-difluorophenyl)ethyl)-2-((3bS,4aR)-3-(difluoromethyl)-5,5-difluoro-3b,4,4a,5-tetrahydro-1H-cyclopropa[3,4]cyclopenta[1,2-c]pyrazol-1-yl)acetamide] | 0.381 nM | > 500 nM | 
Cn1nc(NS(C)(=O)=O)c2c(Cl)ccc(-n3c([C@H](Cc4cc(F)cc(F)c4)NC(=O)Cn4nc(C(F)F)c5c4C(F)(F)[C@@H]4C[C@H]54)nc4cc(N5CC6(COC6)C5)ccc4c3=O)c21 (atropisomer, axis not shown; (P)) [Example 21, N—((S)-1-((3P)-3-(4-chloro-1-methyl-3-(methylsulfonamido)-1H-indazol-7-yl)-4-oxo-7-(2-oxa-6-azaspiro[3.3]heptan-6-yl)-3,4-dihydroquinazolin-2-yl)-2-(3,5-difluorophenyl)ethyl)-2-((3bS,4aR)-3-(difluoromethyl)-5,5-difluoro-3b,4,4a,5-tetrahydro-1H-cyclopropa[3,4]cyclopenta[1,2-c]pyrazol-1-yl)acetamide] | 0.064 nM | > 500 nM | 
Cn1nc(NS(C)(=O)=O)c2c(Cl)ccc(-n3c([C@H](Cc4cc(F)cc(F)c4)NC(=O)Cn4nc(C(F)F)c5c4C(F)(F)[C@@H]4C[C@H]54)nc4cc(NCC(F)F)ccc4c3=O)c21 (atropisomer, axis not shown; (P)) [Example 41, N—((S)-1-((3P)-3-(4-chloro-1-methyl-3-(methylsulfonamido)-1H-indazol-7-yl)-7-((2,2-difluoroethyl)amino)-4-oxo-3,4-dihydroquinazolin-2-yl)-2-(3,5-difluorophenyl)ethyl)-2-((3bS,4aR)-3-(difluoromethyl)-5,5-difluoro-3b,4,4a,5-tetrahydro-1H-cyclopropa[3,4]cyclopenta[1,2-c]pyrazol-1-yl)acetamide] | 0.174 nM | > 1000 nM | 
Cn1nc(NS(C)(=O)=O)c2c(Cl)ccc(-n3c([C@H](Cc4cc(F)cc(F)c4)NC(=O)Cn4nc(C(F)F)c5c4C(F)(F)[C@@H]4C[C@H]54)nc4cc(N5CC(C)(C)OC(C)(C)C5)ccc4c3=O)c21 (atropisomer, axis not shown; (P)) [Example 57, N—((S)-1-((3P)-3-(4-chloro-1-methyl-3-(methylsulfonamido)-1H-indazol-7-yl)-4-oxo-7-(2,2,6,6-tetramethylmorpholino)-3,4-dihydroquinazolin-2-yl)-2-(3,5-difluorophenyl)ethyl)-2-((3bS,4aR)-3-(difluoromethyl)-5,5-difluoro-3b,4,4a,5-tetrahydro-1H-cyclopropa[3,4]cyclopenta[1,2-c]pyrazol-1-yl)acetamide] | 0.077 nM | > 500 nM | 
CC(C(=O)N[C@@H](Cc1cc(F)cc(F)c1)c1nc2cc(N3C[C@@H](C)O[C@@H](C)C3)ccc2c(=O)n1-c1ccc(Cl)c2c(NS(C)(=O)=O)nn(CC(F)F)c12)n1nc(C(F)(F)F)cc1C1CC1 (stereo partly shown) [Example 55] | 4.3 nM | > 500 nM | 
C[C@@H]1CN(c2ccc3c(=O)n(-c4ccc(Cl)c5c(NS(=O)(=O)C6CC6)nn(CC(F)(F)F)c45)c([C@H](Cc4cc(F)cc(F)c4)NC(=O)Cn4nc(C(F)(F)F)c5c4C(F)(F)[C@@H]4C[C@H]54)nc3c2)C[C@H](C)O1 (atropisomer, axis not shown; (P)) [Example 63, N—((S)-1-((3P)-3-(4-chloro-3-(cyclopropanesulfonamido)-1-(2,2,2-trifluoroethyl)-1H-indazol-7-yl)-7-((2S,6R)-2,6-dimethylmorpholino)-4-oxo-3,4-dihydroquinazolin-2-yl)-2-(3,5-difluorophenyl)ethyl)-2-((3bS,4aR)-5,5-difluoro-3-(trifluoromethyl)-3b,4,4a,5-tetrahydro-1H-cyclopropa[3,4]cyclopenta[1,2-c]pyrazol-1-yl)acetamide] | 0.15 nM | > 500 nM | 
Cn1nc(NS(C)(=O)=O)c2c(Cl)ccc(-n3c([C@H](Cc4cc(F)cc(F)c4)NC(=O)Cn4nc(C(F)F)c5c4C(F)(F)[C@@H]4C[C@H]54)nc4cc(N5C6COCC5COC6)ccc4c3=O)c21 [Example 6, N—((S)-1-(7-(3,7-dioxa-9-azabicyclo[3.3.1]nonan-9-yl)-(3P)-3-(4-chloro-1-methyl-3-(methylsulfonamido)-1H-indazol-7-yl)-4-oxo-3,4-dihydroquinazolin-2-yl)-2-(3,5-difluorophenyl)ethyl)-2-((3bS,4aR)-3-(difluoromethyl)-5,5-difluoro-3b,4,4a,5-tetrahydro-1H-cyclopropa[3,4]cyclopenta[1,2-c]pyrazol-1-yl)acetamide] | 0.145 nM |  | > 500 nM
C[C@@H]1CN(c2ccc3c(=O)n(-c4ccc(Cl)c5c(NS(C)(=O)=O)nn(CC(F)F)c45)c([C@H](Cc4cc(F)cc(F)c4)NC(=O)Cn4nc(C5CC5)cc4C(F)F)nc3c2)C[C@H](C)O1 (atropisomer, axis not shown; (P)) [Example 47, N—((S)-1-((3P)-3-(4-chloro-1-(2,2-difluoroethyl)-3-(methylsulfonamido)-1H-indazol-7-yl)-7-((2S,6R)-2,6-dimethylmorpholino)-4-oxo-3,4-dihydroquinazolin-2-yl)-2-(3,5-difluorophenyl)ethyl)-2-(3-cyclopropyl-5-(difluoromethyl)-1H-pyrazol-1-yl)acetamide] | 0.96 nM | > 500 nM | 
